Patent US7547678B2, “Method for treating a disease, disorder or adverse effect caused by an elevated serum concentration of an UGT1A1 substrate” (Abbott Laboratories, priority 2008, dated 2009)
Where “and” joins values, the source holds several entries; their conditions need not be identical. Identical values can stand only once. One block for each compound: values may come before it.

Tests used:
[1] = one study, subjects taking atazanavir; cited from earlier work
[2] = system: bilirubin conjugation in human microsomes; settings: in vitro system of human microsomes; cited from earlier work
UGT1A1 isoform = target: T1, UGT1A1 isoform (Homo sapiens, UniProt P22309); settings: human cells transfected with the UGT1A1 isoform; cited from earlier work
T1 sequence (P22309 26-533): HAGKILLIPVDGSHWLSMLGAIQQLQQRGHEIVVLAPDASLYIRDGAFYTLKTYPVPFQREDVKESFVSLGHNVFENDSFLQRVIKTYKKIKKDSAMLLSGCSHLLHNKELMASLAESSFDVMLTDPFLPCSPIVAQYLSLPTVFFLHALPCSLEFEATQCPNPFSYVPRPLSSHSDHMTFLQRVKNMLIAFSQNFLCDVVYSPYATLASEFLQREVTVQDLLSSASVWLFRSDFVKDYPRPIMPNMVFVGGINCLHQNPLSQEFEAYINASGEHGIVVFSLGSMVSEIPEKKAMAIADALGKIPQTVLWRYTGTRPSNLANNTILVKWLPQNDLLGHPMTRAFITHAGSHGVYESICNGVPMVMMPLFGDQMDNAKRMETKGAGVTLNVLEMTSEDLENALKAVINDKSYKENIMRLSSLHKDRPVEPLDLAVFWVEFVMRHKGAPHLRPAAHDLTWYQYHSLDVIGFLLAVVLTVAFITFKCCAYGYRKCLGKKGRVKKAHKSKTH

[3] = Ethinylestradiol pharmacokinetics alone and with ritonavir in healthy female volunteers; type: in vivo, human
Description: This was an open-label, single-center study in healthy female volunteers who had not received an oral contraceptive for a minimum of six months prior to study start. Subjects received the first dose of oral contraceptive containing 50 μg of ethinyl estradiol on Day 1. […] On Day 15, 300 mg q12h was administered, 400 mg q12h was given on Day 16, and 500 mg q12h was administered thereafter. […] Blood samples for ethinylestradiol concentrations were collected for 48 h after each of the oral contraceptive doses.
Twenty-seven subjects were enrolled in the study. […] Data from these four subjects were therefore excluded from summary statistics. The mean ±SD age of the 23 subjects who completed the study was 34±10 yrs (range 19 to 45 yrs), the mean ±SD weight was 67.3±10.9 kg (range 50.8 to 90.3 kg), and the mean ±SD height was 167±7 cm (range 155 to 180 cm).
Ethinylestradiol was supplied as Demulen@ 1/50-21 tablets (G.D. Searle & Co.) containing 50 μg of ethinylestradiol and 1 mg of ethynodiol diacetate and was administered at 8:00 a.m. on Day 1 and Day 29 with approximately 240 mL of water and within 15 minutes of a meal or snack.
Subjects were confined for 64 hours from Day-1 (day prior to the initial dose) through the first 48 hour blood collection (morning of Day 3) and for 64 hours from Day 28 through the second 48 hour blood collection (morning of Day 31). In addition, subjects came to the clinical testing unit as outpatients for meals, dosing and other study activities twice daily for a total of 14 consecutive days, starting on Day 15. Strenuous activity during confinement was not permitted. During confinement, subjects abstained from all food and beverages except for the scheduled meals and snacks provided in the study. Water was available ad libitum. All meals were standardized with regard to content during confinement. Breakfast, lunch, and dinner were served at approximately 7:30 a.m., 1:00 p.m. and 7:30 p.m. and snacks were provided at approximately 10:00 p.m., except on Days-1 and 28 when the snack was served at 9:45 p.m. An 8 hour fast was required prior to all blood collections for clinical laboratory analyses. The sequence of starting breakfast and dinner on each dosing day during confinement was maintained to the minute such that the time intervals relative to dosing were the same among all subjects.
Blood samples (7 mL) were collected for serum ethinyl estradiol concentrations at the following times relative to the dose on Day 1 and Day 29: prior to (0 h) and at 0.5, 1, 2, 3, 4, 6, 8, 10, 12, 18, 24, 30, 36, and 48 h post-dose. […] All plasma and serum samples were packed with dry ice and shipped to the analytical sites.
Serum samples were analyzed for ethinylestradiol concentrations at Pharmaco LSR, Richmond, Va.
Analysis of serum samples for determination of ethinyl estradiol was performed at Pharmaco LSR, Richmond, Va. Ethinylestradiol serum concentrations were determined using a gas chromatography/mass spectrometry (GC/MS) method. 17α-ethinylestradiol and its corresponding isotopically labeled internal standard were isolated from human serum by buffering the serum to pH 8.6 and then extracting with an ethyl ether/methylene chloride mixture. The organic layer was exchanged into aqueous base, washed with hexane and then acidified and extracted with methylene chloride. […] This method has been validated over 17α-ethinylestradiol concentrations ranging from 2.00 to 256 pg/mL for a 1.0 mL serum volume, with a minimum quantitation limit of 2.00 pg/mL. […]

[4] = system: bilirubin-conjugating activity; settings: indinavir treatment; cited from earlier work
[5] = system: UDP-glucuronosyltransferase 1A (UGT 1A); test: Affymetrix Rat U34 microarray of liver RNA after oral ritonavir; type: in vivo, Sprague-Dawley rats
UGT1A1 = test: Hepatic 17α-ethinylestradiol glucuronidation activity in liver microsomes of treated rats; settings: both male and female rats
[6] = Mean ± SD, n = 23, single 50 μg ethinylestradiol dose, alone (Day 1) or on Day 29 during ritonavir 500 mg q12h, serum
[7] = 1-Day Studies, 20 mg/kg oral, liver RNA, 20 mg/kg
[8] = 1-Day Studies, 50 mg/kg oral, liver RNA, 50 mg/kg
[9] = 3-Day Studies, 50 mg/kg oral daily, liver RNA, 50 mg/kg

SMILES: COC(=O)N[C@H](C(=O)N[C@@H](Cc1ccccc1)[C@@H](O)CN(Cc1ccc(-c2ccccn2)cc1)NC(=O)[C@@H](NC(=O)OC)C(C)(C)C)C(C)(C)C [Atazanavir]
subjects exhibiting unconjugated hyperbilirubinemia [1]: 57%
inhibition of bilirubin conjugation (result in words) [2]: inhibits bilirubin conjugation in the micromolar range
inhibition of bilirubin conjugation (result in words) (UGT1A1 isoform): inhibits bilirubin conjugation in the micromolar range

Ethinylestradiol AUC∞ [3, 6]: 1670 ± 377 pg·h/mL
Ethinylestradiol Cmax [3, 6]: 104 ± 24 pg/mL
Ethinylestradiol Tmax [3, 6]: 4.0 ± 1.7 h
Ethinylestradiol β (terminal elimination rate constant) [3, 6]: 0.0407 ± 0.0082 h⁻¹
time at which serum ethinylestradiol concentrations peaked post-dose ([3]; single dose of oral contraceptive alone): approximately 4 h
SMILES: C#C[C@]1(O)CC[C@H]2[C@@H]3CCc4cc(O)ccc4[C@H]3CC[C@@]21C [Ethinylestradiol, 17α-ethinylestradiol]

SMILES: CC(C)(C)NC(=O)[C@@H]1CN(Cc2cccnc2)CCN1C[C@@H](O)C[C@@H](Cc1ccccc1)C(=O)N[C@H]1c2ccccc2C[C@H]1O [Indinavir]
cause of elevations in serum-unconjugated bilirubin (result in words) [4]: direct inhibition of bilirubin-conjugating activity

UGT1A levels for all probe sets ([5]; dose levels of 100 mg/kg and higher, after 1 and 3 days of treatment): consistent increase
SMILES: CC(C)c1nc(CN(C)C(=O)N[C@H](C(=O)N[C@@H](Cc2ccccc2)C[C@H](O)[C@H](Cc2ccccc2)NC(=O)OCc2cncs2)C(C)C)cs1 [ritonavir, Ritonavir]
Fold change, UDP-glucuronosyltransferase 1 family, member 1 (1st probe sequence) ([5]; 1-Day Studies, 20 mg/kg oral, liver RNA): 1.63
Fold change, 3-methylcholanthrene-inducible UDP-glucuronosyltransferase [5, 7]: 1.83 and 1.54
Fold change, UDP-glucuronosyltransferase 1 family, member 1 (2nd probe sequence) [5, 7]: 1.68 and 1.51
Fold change, UDP-glucuronosyltransferase 1 family, member 1 (3rd probe sequence) [5, 7]: 1.8 and 1.52
Fold change, UDP glucuronosyltransferase, exon 1. ([5]; 1-Day Studies, 50 mg/kg oral, liver RNA): 2.43
Fold change, 3-methylcholanthrene-inducible UDP-glucuronosyltransferase [5, 8]: 1.63 and 2.1
Fold change, UDP-glucuronosyltransferase 1 family, member 1 (1st probe sequence) [5, 8]: 1.68 and 1.63
Fold change, UDP-glucuronosyltransferase 1 family, member 1 (2nd probe sequence) [5, 8]: 2.12 and 2.05
Fold change, UDP-glucuronosyltransferase 1 family, member 1 (3rd probe sequence) [5, 8]: 1.75 and 2.12
Fold change, 3-methylcholanthrene-inducible UDP-glucuronosyltransferase [5, 9]: 1.54 and 1.85
Fold change, UDP-glucuronosyltransferase 1 family, member 1 (3rd probe sequence) [5, 9]: 1.31 and 1.33
glucuronidation of 17α-ethinylestradiol, a UGT1A1 substrate (result in words) (UGT1A1): significantly increase
